The values that follow come from patent US20250228239A1, “MOLECULES HAVING PESTICIDAL UTILITY, AND INTERMEDIATES, COMPOSITIONS, AND PROCESSES, RELATED THERETO” (priority 2024, published 2025).

Read-outs that look alike come from different tables or passages of the source.

What is called mortality is the share of the test organisms that died.

Holding throughout (type): in vivo
For data set [1], the system named is Yellow Fever Mosquito (Aedes aegypti, AEDSAE). The settings on record: for YFM rating: Table ABC / ABC-DP rating. An outline of the steps: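 Larvae ~1 day old, in liver powder/water; compound from 4000 ppm DMSO stock diluted with water/acetone (90:10); 6 reps; lidded, RT, 3 d; mortality scored per well, rated.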
Data set [2] deals with Cabbage Looper (Trichoplusia ni, TRIPNI). As to the kind of experiment: Bioassays on Cabbage Looper (CL), 128-well diet tray assay. The following applies: Trichoplusia ni. The essentials:
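Each of eight wells receives artificial diet treated at 50 μg/cm^2 with the test molecule, then one to five second-instar larvae. Incubation runs five to seven days at 25° C with a 14:10 light-dark cycle under vented covers. Mortality is scored per well as a percentage and averaged.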

The subject of data set [3] is Beet Armyworm (Spodoptera exigua, LAPHEG). As to the kind of experiment: Bioassays on Beet Armyworm (BAW), 128-well diet tray assay. The settings on record: Spodoptera exigua. An outline of the steps: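 One to five second-instar larvae per well on artificial diet surface-treated with 50 μg/cm^2 test molecule (applied in 90:10 acetone-water, dried), eight wells per compound. Trays held vented at 25° C., 14:10 light-dark for five to seven days; percent mortality averaged over the eight wells.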

Setting [4] is: Yellow Fever Mosquito, rating class.
[5] abbreviates: Cabbage Looper, rating class, read-out: CL.
[6] abbreviates: Beet Armyworm, rating class, read-out: BAW.
Where [7] appears, read: Cabbage Looper, Table ABC / ABC-DP rating, read-out: CL rating.
The mark [8] stands for this setting: Beet Armyworm, Table ABC / ABC-DP rating, read-out: BAW rating.
Where [9] appears, read: Table ABC: Biological Results, species YFM.
Where [10] appears, read: Table ABC: Biological Results, species CL, read-out: CL.
[11] abbreviates: Table ABC: Biological Results, species BAW, read-out: BAW.

On to `O=C(Nc1ccc(F)c(NC(=O)C2CCOC2)c1F)c1cc(NC(=O)[C@H]2[C@H](c3ccc(F)c(C(F)(F)F)c3)C2(Cl)Cl)ccc1Cl` (stereo partly drawn) [F1480, N-(3-(2-Chloro-5-((1R,3R)-2,2-dichloro-3-(4-fluoro-3-(trifluoromethyl)phenyl)cyclopropane-1-carboxamido)benzamido)-2,6-difluorophenyl)tetrahydrofuran-3-carboxamide], for which the YFM result in data set [1] (setting [4]) is reported as “A (80–100)”. Also, the pest or weed control at 50 µg/cm2 in data set [2] (setting [5]) and in data set [3] (setting [6]) was 50 to 100% throughout.
For the compound `O=C(NCCCCNC(=O)C(F)(F)F)c1cc(NC(=O)[C@H]2[C@H](c3cc(Cl)cc(Cl)c3)C2(Cl)Cl)ccc1Cl` (relative stereo) [F2095, trans-2-Chloro-5-(2,2-dichloro-3-(3,5-dichlorophenyl)cyclopropane-1-carboxamido)-N-(4-(2,2,2-trifluoroacetamido)butyl)benzamide], the YFM rating entry in data set [1] (Yellow Fever Mosquito) is given as “A (80–100)”. The pest or weed control at 50 µg/cm2 in data set [2] (setting [7]) and in data set [3] (setting [8]) was 50 to 100% in each case.
For the compound `O=C(Nc1ccc(F)c(NC(=O)C2CCCO2)c1F)c1cc(NC(=O)[C@H]2[C@H](c3cc(C(F)(F)F)cc(C(F)(F)F)c3)C2(Cl)Cl)ccc1Cl` (relative stereo) [F1805, trans-N-(3-(5-(3-(3,5-bis(Trifluoromethyl)phenyl)-2,2-dichlorocyclopropane-1-carboxamido)-2-chlorobenzamido)-2,6-difluorophenyl)tetrahydrofuran-2-carboxamide], the YFM rating result in data set [1] (Yellow Fever Mosquito) is listed as “A (80–100)”. In addition, the pest or weed control at 50 µg/cm2 in data set [2] (setting [7]) and in data set [3] (setting [8]) was 50 to 100% throughout.
`C=C(F)C(=O)Nc1c(F)ccc(NC(=O)c2cc(NC(=O)[C@H]3[C@H](c4ccc(F)c(C(F)(F)F)c4)C3(Cl)Cl)ccc2Cl)c1F` [F1870, 2-Chloro-5-((1R,3R)-2,2-dichloro-3-(4-fluoro-3-(trifluoromethyl)phenyl)cyclopropane-1-carboxamido)-N-(2,4-difluoro-3-(2-fluoroacrylamido)phenyl)benzamide]: the YFM rating entry in data set [1] (Yellow Fever Mosquito) is “A (80–100)”. Also, the pest or weed control at 50 µg/cm2 in data set [2] (setting [7]) and in data set [3] (setting [8]) was 50 to 100% in each case.
Regarding `CNNC(=O)c1cc(NC(=O)[C@H]2[C@H](c3cc(Cl)cc(Cl)c3)C2(Cl)Cl)ccc1Cl.Cl` (relative stereo) [F2521, trans-2,2-Dichloro-N-(4-chloro-3-(2-methylhydrazine-1-carbonyl)phenyl)-3-(3,5-dichlorophenyl)cyclopropane-1-carboxamide hydrochloride], in data set [1] (Yellow Fever Mosquito), the YFM rating result is reported as “A (80–100)”. Besides, the pest or weed control at 50 µg/cm2 in data set [2] (setting [7]) and in data set [3] (setting [8]) was 50 to 100% each time.
On to `N#CCC(=O)Nc1c(Cl)ccc(NC(=O)c2cc(NC(=O)[C@H]3[C@H](c4ccc(Cl)c(Cl)c4)C3(Cl)Cl)ccc2Cl)c1Cl` [F1415, 2-Chloro-N-(2,4-dichloro-3-(2-cyanoacetamido)phenyl)-5-((1R,3R)-2,2-dichloro-3-(3,4-dichlorophenyl)cyclopropane-1-carboxamido)benzamide], for which, in data set [1] (setting [4]), the YFM entry is “A (80–100)”. The pest or weed control at 50 µg/cm2 in data set [2] (setting [5]) and in data set [3] (setting [6]) was 50 to 100% throughout.
For the compound `CN(C(=O)c1cc(NC(=O)[C@H]2[C@H](c3ccc(Cl)c(Cl)c3)C2(Cl)Cl)ccc1Cl)c1ccc(F)c(NC(=O)C(F)(F)F)c1F` [F1792, 2-Chloro-5-((1R,3R)-2,2-dichloro-3-(3,4-dichlorophenyl)cyclopropane-1-carboxamido)-N-(2,4-difluoro-3-(2,2,2-trifluoroacetamido)phenyl)-N-methylbenzamide], the YFM rating result in data set [1] (Yellow Fever Mosquito) is “A (80–100)”. In addition, the pest or weed control at 50 µg/cm2 in data set [2] (setting [7]) and in data set [3] (setting [8]) was 50 to 100% throughout.
On to `O=C(/C=C/C(F)(F)F)Nc1c(F)ccc(NC(=O)c2cc(NC(=O)[C@H]3[C@H](c4ccc(F)c(C(F)(F)F)c4)C3(Cl)Cl)ccc2Cl)c1F` [F1869, 2-Chloro-5-((1R,3R)-2,2-dichloro-3-(4-fluoro-3-(trifluoromethyl)phenyl)cyclopropane-1-carboxamido)-N-(2,4-difluoro-3-((E)-4,4,4-trifluorobut-2-enamido)phenyl)benzamide], for which the YFM rating result in data set [1] (Yellow Fever Mosquito) is given as “A (80–100)”. In addition, the pest or weed control at 50 µg/cm2 in data set [2] (setting [7]) and in data set [3] (setting [8]) was 50 to 100% in each case.
On to `CN(NC(=O)c1cc(NC(=O)[C@H]2[C@H](c3cc(Cl)cc(Cl)c3)C2(Cl)Cl)ccc1Cl)C(=O)CC1CC1` (relative stereo) [F2524, trans-2,2-Dichloro-N-(4-chloro-3-(2-(2-cyclopropylacetyl)-2-methylhydrazine-1-carbonyl)phenyl)-3-(3,5-dichlorophenyl)cyclopropane-1-carboxamide], for which the YFM rating result in data set [1] (Yellow Fever Mosquito) is recorded as “A (80–100)”. The pest or weed control at 50 µg/cm2 in data set [2] (setting [7]) and in data set [3] (setting [8]) was 50 to 100% in each case.
For `O=C(Nc1ccc(F)cc1F)c1cc(NC(=O)[C@H]2[C@H](c3cccc(I)c3)C2(Cl)Cl)ccc1Cl` (relative stereo) [F1088, trans-2-Chloro-5-(2,2-dichloro-3-(3-iodophenyl)cyclopropane-1-carboxamido)-N-(2,4-difluorophenyl)benzamide], the YFM entry in data set [1] (setting [9]) was “A (80–100)”. Moreover, the pest or weed control at 50 µg/cm2 in data set [2] (setting [10]) and in data set [3] (setting [11]) was 50 to 100% in each case.
Take `O=C(Nc1ccccc1)c1cc(NC(=O)[C@H]2[C@H](c3ccc(F)c(Cl)c3)C2(Cl)Cl)cc(C(F)(F)F)c1Cl` (relative stereo) [F1212, trans-2-Chloro-5-(2,2-dichloro-3-(3-chloro-4-fluorophenyl)cyclopropane-1-carboxamido)-N-phenyl-3-(trifluoromethyl)benzamide]: the YFM entry in data set [1] (setting [9]) is “A (80–100)”. For the same compound, the pest or weed control at 50 µg/cm2 in data set [2] (setting [10]) and in data set [3] (setting [11]) was 50 to 100% in each case.
In the case of `N#Cc1ccccc1NNC(=O)c1cc(NC(=O)[C@H]2[C@H](c3cc(Cl)cc(Cl)c3)C2(Cl)Cl)ccc1Cl` (relative stereo) [F2576, trans-2,2-Dichloro-N-(4-chloro-3-(2-(2-cyanophenyl)hydrazine-1-carbonyl)phenyl)-3-(3,5-dichlorophenyl)cyclopropane-1-carboxamide], in data set [1] (Yellow Fever Mosquito), the YFM rating entry is “A (80–100)”. Also, the “YFM % Control (or Mortality) rating” value in data set [1] (about 1 day-old larvae, 4000 ppm master solution diluted with 90:10 water/acetone, 15 μL per well plus 220 μL larval mixture, 3 days, mortality) is recorded as “A (80–100)”. The mortality at 50 µg/cm2 in data set [2] (168 h, second instar larvae, 50 μg/cm^2 of test molecule on artificial diet, 25° C., five to seven days, average of eight wells, read-out: CL % Control (or Mortality) rating) lay within 50 to 100%; in data set [3] (168 h, second instar larvae, 50 μg/cm^2 of test molecule on artificial diet, 25° C., five to seven days, average of eight wells, read-out: BAW % Control (or Mortality) rating), 50 to 100%. For the same compound, the pest or weed control at 50 µg/cm2 in data set [2] (setting [7]) and in data set [3] (setting [8]) was 50 to 100% throughout.
In the case of `C=Cc1ccc(NC(=O)c2cc(NC(=O)[C@H]3[C@H](c4cc(Cl)cc(Cl)c4)C3(Cl)Cl)ccc2Cl)c(F)c1` (relative stereo) [F1313, trans-2-Chloro-5-(2,2-dichloro-3-(3,5-dichlorophenyl)cyclopropane-1-carboxamido)-N-(2-fluoro-4-vinylphenyl)benzamide], in data set [1] (setting [9]), the YFM result is on record as “A (80–100)”. Besides, the pest or weed control at 50 µg/cm2 in data set [2] (setting [10]) and in data set [3] (setting [11]) was 50 to 100% each time.
On to `O=C(CCC(F)(F)F)Nc1c(F)ccc(NC(=O)c2cc(NC(=O)[C@H]3[C@H](c4ccc(F)c(Cl)c4)C3(Cl)Cl)ccc2Cl)c1F` [F1848, 2-Chloro-5-((1R,3R)-2,2-dichloro-3-(3-chloro-4-fluorophenyl)cyclopropane-1-carboxamido)-N-(2,4-difluoro-3-(4,4,4-trifluorobutanamido)phenyl)benzamide], for which the YFM rating result in data set [1] (Yellow Fever Mosquito) was “A (80–100)”. Further, the pest or weed control at 50 µg/cm2 in data set [2] (setting [7]) and in data set [3] (setting [8]) was 50 to 100% in each case.
